This test has as its system 2nd order mesenteric resistance arteries of SHR. In words: Reactivity of isolated arteries: dilator effect during contraction induced by 40 mmol/L K+. Also on record: species or system Spontaneously Hypertensive Rats (SHR). As for the experimental part: Segments of 2nd order mesenteric artery side branches were isolated from 14 weeks old male Spontaneously Hypertensive Rats (SHR). Two stainless-steel wires (diameter 40 μm) were inserted in the lumen of the arterial segments, which were then mounted in organ chambers between an isometric force transducer and a displacement device (Danish Myotechnology by J. P. Trading, Denmark). The organ chambers were filled with Krebs-Ringer bicarbonate solution which was maintained at 37° C. and continuously aerated with 95% O2 and 5% CO2. Before the actual experiments started, arterial segments were stretched to their individual optimal lumen diameter for mechanical performance, i.e. the diameter at which maximal contractile responses to noradrenaline (10 μmol/L) were obtained. In each experiment four second order mesenteric resistance arterial segments from one animal were mounted in individual organ chambers and studied in parallel. At the start of the experiments, all four arterial preparations were incubated during 20 min with capsaicin (1 μmol/L) to persistently desensitize sensory-motor nerves and to obtain a stable and considerable contractile response to potassium (K^+, 40 mmol/L). During all the experiments superoxide dismutase (SOD, 5 U/ml) was present, to preserve stability of the metabolites. We tested the effects of the 35 different phenolic compounds using a Plackett-Burman screening design. The experiment consisted of 5 separate saturated 8 run Plackett-burman designs. […] In this way, the effects of different exposure times to the mixtures (7, 30 and 90 min) on K+-induced contraction, could be evaluated. […] Effects of increasing concentrations of the solvent and of the mixes (0.1 to 100 umol/L) during contractile responses to 40 mmol/L K+, were calculated as % change of the level of pre-contraction. […] Responses to acetylcholine and Na-nitroprusside were analysed in terms of sensitivity (pD2=−log (M) EC50) and maximal effect (Emax) by least square sigmoidal curve fitting of individual concentration-response curves (Graphpad Prism 1.00, San Diego, Calif., USA). […]

In the case of `O=c1c(O)c(-c2ccc(O)cc2)oc2cc(O)cc(O)c12` [kaempferol, 3,5,7-trihydroxy-2-(4-hydroxyphenyl)-4H-1-benzopyran-4-one], the 50% effective concentration (EC50) (Rattus norvegicus, isolated mesenteric resistance arteries of SHR, pre-contracted with 40 mmol/L K+, deduced by comparing mixtures (Plackett-Burman design), corrected for solvent, read-out: EC50 of dilation of the arteries) stood at 3000 nM. For the same compound, the “influence on the dilation of the arteries” value (at a low concentration, isolated SHR mesenteric arteries, comparison of different mixtures) is reported as “significant influence on the dilation of the arteries”. Also, for the setting “isolated mesenteric resistance arteries of SHR, pre-contracted with 40 mmol/L K+, range tested 0.1-100 umol/L”, the “concentration at which the maximum dilatation was obtained” value was 100 µM.

As usually defined, the EC50 is the concentration giving half of the maximal effect.

Values taken from patent US20090010993A1, “Composition comprising polyphenol” (Conopco, Inc. d/b/a Unilever, priority 2007, published 2009).
